# Experimental data taken from patent US8071786B2, “Indole compounds useful as serotonin selective agents” (Galenea Corp., priority 2005, dated 2011).
# Marks after values point to notes of the source that are not given here.
# How the values were obtained:
# human 5-HT2C-INI = biological target: T1, human 5-HT2C-INI (Homo sapiens, UniProt P28335); assay: Phosphoinositide hydrolysis functional assay; assay type: cell-based; settings: for EC50 / Functional Assay (EC50) 5-HT2C: activation of phosphoinositide hydrolysis, stably expressed receptor; for Emax: value in brackets, read-out: percent Vmax relative to serotonin at 100%, 5-HT2C (converted)
# T1 construct: expressed in transfected cells
# T1 sequence (P28335 33-458): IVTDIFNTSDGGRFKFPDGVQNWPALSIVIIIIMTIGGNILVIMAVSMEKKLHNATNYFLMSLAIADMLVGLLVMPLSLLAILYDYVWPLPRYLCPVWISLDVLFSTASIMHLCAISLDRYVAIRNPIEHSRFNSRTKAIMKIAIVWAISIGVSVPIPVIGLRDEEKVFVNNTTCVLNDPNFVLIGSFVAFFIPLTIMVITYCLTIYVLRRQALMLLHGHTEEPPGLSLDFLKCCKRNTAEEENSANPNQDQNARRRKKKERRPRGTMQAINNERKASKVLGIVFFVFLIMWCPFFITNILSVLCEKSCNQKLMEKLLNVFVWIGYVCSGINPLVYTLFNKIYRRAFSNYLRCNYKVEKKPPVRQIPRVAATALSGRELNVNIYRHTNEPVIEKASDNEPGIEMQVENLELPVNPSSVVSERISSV
# Description: (§1) Phosphoinositide hydrolysis assays were performed with stably (5-HT2A, 5-HT2C) or transiently (5-HT2B) expressed receptors plated in 24-well culture plates. Transfected cells were loaded with […] overnight in inositol-free DMEM without serum. The next day, phosphate accumulation assays were performed in a modified Krebs-bicarbonate buffer. Kact (nmol/L) and percent Vmax (relative to 5-HT) values were calculated (Roth, B. L., Shoham, M., Choudhary, M., Khan, N. “Identification of Conserved Aromatic Residues Essential for Agonist Binding and Second Messenger Production at 5-Hydroxytryptamine 2A Receptors” Mol. Pharmacol. 1997, 52, 259; Roth, B. L., Choudhary, M., Khan, N., Uluer, A. “High-affinity Agonist Binding is not Sufficient for Agonist Efficacy at 5-Hydroxytryptamine 2A Receptors: Evidence in Favor of a Modified Ternary Complex Model” J. Pharmacol. Exp. Ther. 1997, 280, 576).
# (§2) Functional Assay (EC50) in nM. Data represent mean EC50 values for activation of phospho-inositide hydrolysis in cells expressing human 5-HT2A, 5-HT2B or 5-HT2C-INI receptors, relative to serotonin at 100%. When the standard deviation is given, N≧3.
# 5-HT2A = 5-HT2A (Homo sapiens, UniProt P28223); assay: Phosphoinositide hydrolysis functional assay; assay type: cell-based; set-up: expressed in transfected cells; settings: for EC50 / Functional Assay (EC50) 5-HT2A: activation of phosphoinositide hydrolysis, stably expressed receptor; for percent Vmax relative to serotonin at 100%, 5-HT2A: value in brackets
# 5-HT2A, sequence (P28223 whole entry): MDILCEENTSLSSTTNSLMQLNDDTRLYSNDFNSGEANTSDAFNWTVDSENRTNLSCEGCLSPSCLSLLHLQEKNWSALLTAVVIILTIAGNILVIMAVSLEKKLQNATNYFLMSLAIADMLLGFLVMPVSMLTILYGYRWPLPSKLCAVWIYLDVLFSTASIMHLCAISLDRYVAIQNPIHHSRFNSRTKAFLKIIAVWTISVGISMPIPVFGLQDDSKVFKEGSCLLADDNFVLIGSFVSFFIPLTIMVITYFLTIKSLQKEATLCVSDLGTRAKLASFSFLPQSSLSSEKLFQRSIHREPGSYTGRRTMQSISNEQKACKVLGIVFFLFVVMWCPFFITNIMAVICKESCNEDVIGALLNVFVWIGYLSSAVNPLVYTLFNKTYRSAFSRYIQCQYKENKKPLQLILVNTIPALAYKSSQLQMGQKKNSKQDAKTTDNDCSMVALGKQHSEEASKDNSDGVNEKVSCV
# Description: as §1, §2
# 5-HT2B = 5-HT2B (Homo sapiens, UniProt P41595); assay: Phosphoinositide hydrolysis functional assay; assay type: cell-based; set-up: expressed in transfected cells; settings: activation of phosphoinositide hydrolysis, transiently expressed receptor
# 5-HT2B, sequence (P41595 whole entry): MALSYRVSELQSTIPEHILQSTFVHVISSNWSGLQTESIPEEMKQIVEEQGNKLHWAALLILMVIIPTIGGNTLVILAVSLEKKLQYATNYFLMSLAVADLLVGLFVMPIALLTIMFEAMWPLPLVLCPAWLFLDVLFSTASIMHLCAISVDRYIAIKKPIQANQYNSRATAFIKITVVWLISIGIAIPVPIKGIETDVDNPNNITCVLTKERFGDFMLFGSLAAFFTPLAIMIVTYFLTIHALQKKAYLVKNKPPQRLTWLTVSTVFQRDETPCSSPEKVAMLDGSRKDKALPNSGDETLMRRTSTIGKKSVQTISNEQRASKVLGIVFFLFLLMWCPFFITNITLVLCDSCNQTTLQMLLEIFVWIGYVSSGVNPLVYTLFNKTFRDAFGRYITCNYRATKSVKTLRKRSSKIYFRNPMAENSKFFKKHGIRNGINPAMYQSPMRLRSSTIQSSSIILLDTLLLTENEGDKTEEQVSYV
# Description: as §1, §2
# [1] = tested on: itch-associated scratching induced by serotonin; assay: Animal model for OCD: serotonin-induced scratching; assay type: in vivo, male Swiss-Webster mice; settings: for Number of Scratches as Percentage of Control: inducer Serotonin
# Description: The 5-HT action is at least partly mediated by 5-HT2 receptors in the skin, as shown by blocking with specific antagonists (Yamaguchi, T., Nagasawa, T., Satoh, M., Kuraishi, Y. “Itch-associated Response Induced by Intradermal Serotonin Through 5-HT2 Receptors in Mice” Neurosci. Res. 1999, 35, 77). The effect of test compounds on itch-associated scratching in the mice may indicate their action on 5-HT receptors, and a study was carried out as an animal model for OCD. The subjects were male Swiss-Webster mice, 4-6 weeks old, weighing 25-45 g. Mice were housed 5 per cage, given free access to standard mouse food and water except during experiments, and maintained in a temperature-controlled room (70° F.). Serotonin and all test drugs were made up with ascorbic acid to protect against oxidation. Two mice, one a control, the other experimental, were tested each time. Each mouse was separately placed into a plexiglas box.
# Mice were injected subcutaneously between the shoulder blades with either 0.1 ml of serotonin, 0.4 mg per ml in 0.15 M saline plus ascorbic acid, 1 mg/ml, or compound 48-80 (the copolymer product of N-methyl-p-methoxyphenethylamine with formaldehyde), 1.0 mg/ml in saline plus ascorbic acid. Test compounds were injected i.p. 5 minutes before the inducer. The cumulative number of scratches with a hind leg was recorded at 5 minute intervals for 30 minutes. One saline injected control and one test animal were tested together in each assay.
# [2] = Appetite suppression in mice, acute assay (food consumption); assay type: in vivo; settings: for Mean food consumption 60 min. after injection: g (±SEM) Compound / Mean food consumption 90 min. after injection: g (±SEM) Compound: mice deprived of food 18 hours
# Description: Mice were deprived of food, but not water, for 18 hours. They were then injected i.p. with test compounds dissolved in 0.9% NaCl containing 1 mg per ml ascorbic acid for protection against oxidation. Each mouse was placed in an individual cage for 30 minutes and then presented with a small petri dish containing a gel made from gelatin, powdered milk and sucrose. The dish was weighed at zero time and at 15-minute intervals for the next hour in order to quantitate food consumption. Controls were injected with saline-ascorbic acid; ±fenfluramine was used as an active control. Control consumption generally ranged from 1.5 to 2.0 grams.
# [3] = Appetite suppression in mice, chronic assay (body weight); assay type: in vivo
# Description: Mice were injected i.p. at intervals of 2 or 3 days and weighed repeatedly (6 or 7 total injections). Controls were injected with saline. Weighing and injection were carried out between 11 AM and 1 PM.
# [4] = 10 mg/kg i.p. 5 minutes before inducer Serotonin
# [5] = dose cell empty (10 mg/kg printed on the Saline line above), i.p. at intervals of 2 or 3 days
# [6] = 20 mg/kg i.p. at intervals of 2 or 3 days
smiles,measurement,setting,value
CN(C)CCc1cn(S(C)(=O)=O)c2cc(F)cc(O)c12,melting point,,184 to 186 °C
"CN(C)CCc1cn(C)c2cc(F)cc(O)c12 [Compound O-4244, 3-(2-Dimethylaminoethyl)-6-fluoro-1-methyl-1H-indol-4-ol]",EC50,human 5-HT2C-INI,0.66 nM
same,Emax,human 5-HT2C-INI,75%
same,melting point,,132 to 134 °C
same,EC50,5-HT2A,0.55 nM
same,"percent Vmax relative to serotonin at 100%, 5-HT2A",5-HT2A,61%
same,Functional Assay (EC50) 5-HT2B,5-HT2B,Inactive
"CCCn1cc(CCN(C)C)c2c(O)cc(F)cc21 [Compound O-4285, 3-(2-Dimethylaminoethyl)-6-fluoro-1-propyl-1H-indol-4-ol]",EC50,human 5-HT2C-INI,131 nM
same,Emax,human 5-HT2C-INI,~75%
same,melting point,,104 to 106 °C
same,EC50,5-HT2A,166 nM
same,"percent Vmax relative to serotonin at 100%, 5-HT2A",5-HT2A,63%
same,Functional Assay (EC50) 5-HT2B,5-HT2B,Inactive
"CC(C)n1cc(CCN(C)C)c2c(O)cc(F)cc21 [Compound O-4310, 3-(2-Dimethylaminoethyl)-6-fluoro-1-isopropyl-1H-indol-4-ol]",EC50,human 5-HT2C-INI,592 nM
same,Emax,human 5-HT2C-INI,~50%
same,EC50,5-HT2A,5 nM
same,"percent Vmax relative to serotonin at 100%, 5-HT2A",5-HT2A,89%
same,Functional Assay (EC50) 5-HT2B,5-HT2B,Inactive
"CNCCC(Oc1ccc(C(F)(F)F)cc1)c1ccccc1 (centres unmarked) [Fluoxetine, reference compound]",Average Number of Scratches 30 min. after injection,[1]; [4],15
same,Number of Scratches as Percentage of Control,[1]; 10 mg/kg i.p.,4.1%
"CCNC(C)Cc1cccc(C(F)(F)F)c1 (centres unmarked) [+/−Fenfluramine, Fenfluramine, reference compound]",% of Control (food consumption 60 min. after injection),[2]; 3 mg/kg i.p.,95%
same,% of Control (food consumption 90 min. after injection),[2]; 3 mg/kg i.p.,95%
same,Mean food consumption 60 min. after injection: g (±SEM) Compound,[2]; 3 mg/kg i.p.,1.2 (.12) g
same,Mean food consumption 90 min. after injection: g (±SEM) Compound,[2]; 3 mg/kg i.p.,1.60 (.14) g
same,% of Control (food consumption 60 min. after injection),[2]; 5 mg/kg i.p.,61%
same,% of Control (food consumption 90 min. after injection),[2]; 5 mg/kg i.p.,67%
same,Mean food consumption 60 min. after injection: g (±SEM) Compound,[2]; 5 mg/kg i.p.,0.90 (.04)* g
same,Mean food consumption 90 min. after injection: g (±SEM) Compound,[2]; 5 mg/kg i.p.,1.18 (.17)* g
same,% of Control (food consumption 60 min. after injection),[2]; 10 mg/kg i.p.,30%
same,% of Control (food consumption 90 min. after injection),[2]; 10 mg/kg i.p.,35%
same,Mean food consumption 60 min. after injection: g (±SEM) Compound,[2]; 10 mg/kg i.p.,0.41 (.11)* g
same,Mean food consumption 90 min. after injection: g (±SEM) Compound,[2]; 10 mg/kg i.p.,0.56 (.13)* g
same,Day 7 % Δ from starting weight,[3]; [5],−9.54* %
same,Day 7 Difference within same group,[3]; [5],-4.74 g
same,Day 14 % Δ from starting weight,[3]; [5],−10.7* %
same,Day 14 Difference within same group,[3]; [5],-5.32 g
same,Average Number of Scratches 30 min. after injection,[1]; [4],12.8*
same,Number of Scratches as Percentage of Control,[1]; 10 mg/kg i.p.,6.5%
"CCCCn1cc(CCN(C)C)c2c(O)ccc(F)c21 [Compound O-4205, 3-(2-Dimethylaminoethyl)-7-fluoro-1-butyl-1H-indol-4-ol]",Functional Assay (EC50) 5-HT2C,human 5-HT2C-INI,inactive
same,melting point,,87 to 90 °C
same,Functional Assay (EC50) 5-HT2A,5-HT2A,Inactive
same,Functional Assay (EC50) 5-HT2B,5-HT2B,Inactive
"CCCn1cc(CCN(C)C)c2c(OP(=O)(O)O)ccc(F)c21 [Compound O-4309, 3-(2-Dimethylaminoethyl)-7-fluoro-1-propyl-1H-indol-4-phosphate]",% of Control (food consumption 60 min. after injection),[2]; 10 mg/kg i.p.,41%
same,% of Control (food consumption 90 min. after injection),[2]; 10 mg/kg i.p.,64%
same,Mean food consumption 60 min. after injection: g (±SEM) Compound,[2]; 10 mg/kg i.p.,0.28 (.06)* g
same,Mean food consumption 90 min. after injection: g (±SEM) Compound,[2]; 10 mg/kg i.p.,0.68 (0.1)* g
same,% of Control (food consumption 60 min. after injection),[2]; 20 mg/kg i.p.,9%
same,% of Control (food consumption 90 min. after injection),[2]; 20 mg/kg i.p.,18%
same,Mean food consumption 60 min. after injection: g (±SEM) Compound,[2]; 20 mg/kg i.p.,.07 (.02)* g
same,Mean food consumption 90 min. after injection: g (±SEM) Compound,[2]; 20 mg/kg i.p.,0.22 (.05)* g
same,Day 7 % Δ from starting weight,[3]; [6],−2.3* %
same,Day 7 Difference within same group,[3]; [6],-1.20 g
same,Day 14 % Δ from starting weight,[3]; [6],−6.03* %
same,Day 14 Difference within same group,[3]; [6],-3.20 g
same,Average Number of Scratches 30 min. after injection,[1]; 2.5 mg/kg i.p. 5 minutes before inducer Serotonin,181.4
same,Number of Scratches as Percentage of Control,[1]; 2.5 mg/kg i.p.,97.4%
same,Average Number of Scratches 30 min. after injection,[1]; 5 mg/kg i.p. 5 minutes before inducer Serotonin,89.6
same,Number of Scratches as Percentage of Control,[1]; 5 mg/kg i.p.,17.8%
same,Average Number of Scratches 30 min. after injection,[1]; [4],8.8
same,Number of Scratches as Percentage of Control,[1]; 10 mg/kg i.p.,1.6%
"CCn1cc(CCN(C)C)c2c(O)cc(F)cc21 [Compound O-4284, 3-(2-Dimethylaminoethyl)-6-fluoro-1-ethyl-1H-indol-4-ol]",EC50,human 5-HT2C-INI,0.54 nM
same,Emax,human 5-HT2C-INI,73%
same,EC50,5-HT2A,2.9 nM
same,"percent Vmax relative to serotonin at 100%, 5-HT2A",5-HT2A,73%
same,Functional Assay (EC50) 5-HT2B,5-HT2B,Inactive
"CCCCn1cc(CCN(C)C)c2c(O)cc(F)cc21 [Compound O-4286, 3-(2-Dimethylaminoethyl)-6-fluoro-1-butyl-1H-indol-4-ol]",Functional Assay (EC50) 5-HT2C,human 5-HT2C-INI,inactive
same,melting point,,92 to 95 °C
same,Functional Assay (EC50) 5-HT2A,5-HT2A,Inactive
same,Functional Assay (EC50) 5-HT2B,5-HT2B,Inactive
CC(C)n1cc(CCN(C)C)c2c(O)ccc(F)c21,melting point,,108 to 110 °C
CN(C)CCc1cn(S(C)(=O)=O)c2c(F)ccc(O)c12,melting point,,181 to 183 °C
"CCS(=O)(=O)n1cc(CCN(C)C)c2c(O)cc(F)cc21 [Compound O-4312, 3-(2-Dimethylaminoethyl)-6-fluoro-1-ethylsulfonyl-1H-indol-4-ol]",Functional Assay (EC50) 5-HT2C,human 5-HT2C-INI,inactive
same,Functional Assay (EC50) 5-HT2A,5-HT2A,inactive
same,Functional Assay (EC50) 5-HT2B,5-HT2B,Inactive
"CN(C)CCc1cn(CC2CC2)c2cc(F)cc(O)c12 [Compound O-4287, 3-(2-Dimethylaminoethyl)-6-fluoro-1-cyclopropylmethyl-1H-indol-4-ol]",EC50,human 5-HT2C-INI,1160 nM
same,Emax,human 5-HT2C-INI,41%
same,melting point,,110 to 112 °C
same,EC50,5-HT2A,3740 nM
same,"percent Vmax relative to serotonin at 100%, 5-HT2A",5-HT2A,63%
same,Functional Assay (EC50) 5-HT2B,5-HT2B,Inactive
